Measurements: US9504700B2, “Methods and compositions for stimulation and enhancement of regeneration of tissues” (MOUNT DESERT ISLAND BIOLOGICAL LABORATORY, priority 2012, dated 2016)

Assays:
[1] = system: caudal fin blastema cells; assay: Proliferation of caudal fin blastema cells (H3P staining); assay type: in vivo, zebrafish; conditions: 4 dpa, vs control
Source text: The zebrafish caudal fins from the control and MSI-1436 treated animals were extracted at four days post-amputation (4 dpa) and stained with an antibody directed against phosphorylated histone 3 (H3P) as a marker of cell proliferation. […] (Arrowheads highlight subset of H3P positive cells; * corresponds to Student's ttest p-value <0.001; error bars correspond to SEM; n corresponds to 6 fish per group).

[2] = system: HIV; conditions: tissue culture; cited from earlier work
[3] = target: T1, PTP1B (Homo sapiens, UniProt P18031); conditions: in vitro enzyme assay; cited from earlier work
T1 sequence (P18031 1-435): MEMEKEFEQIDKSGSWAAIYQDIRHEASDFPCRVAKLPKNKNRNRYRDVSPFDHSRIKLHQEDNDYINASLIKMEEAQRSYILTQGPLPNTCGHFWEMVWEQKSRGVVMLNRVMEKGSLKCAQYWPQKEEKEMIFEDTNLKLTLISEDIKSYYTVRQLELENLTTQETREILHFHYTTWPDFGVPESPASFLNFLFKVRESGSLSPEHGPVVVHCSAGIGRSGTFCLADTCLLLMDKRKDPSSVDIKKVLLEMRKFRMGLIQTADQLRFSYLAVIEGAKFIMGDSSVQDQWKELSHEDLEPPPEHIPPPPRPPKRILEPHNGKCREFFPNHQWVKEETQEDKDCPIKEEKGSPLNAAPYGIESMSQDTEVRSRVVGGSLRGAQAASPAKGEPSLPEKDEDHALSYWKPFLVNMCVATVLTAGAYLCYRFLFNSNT

[4] = system: zebrafish adult hearts; assay: Heart regeneration after partial ventricular resection (cardiomyocyte proliferation index, Mef2+PCNA+); assay type: in vivo; conditions: 3 dpa; 0.125 mg/kg daily ip
Description: The pharmacological effect of aminosterol MSI-1436 administration on the regeneration of zebrafish adult hearts was tested using the same experimental paradigm described under the first study of example 1.
Adult zebrafish of 6-8 months old, were subjected to partial ventricular resection procedures followed by daily treatments with intraperitoneal microinjections of PBS (control) or squalamine or MSI-1436 at concentrations of 0.125 mg/kg. The ventricular resection procedures removed ˜20% of the ventricular apex of each heart and challenged each animal to regenerate new heart tissue. At three days post-amputation (3 dpa), hearts were extracted, fixed, cyrosectioned and stained with antibodies directed against Mef2 and PCNA. Cardiomyocyte proliferation indices were determined for each group by representing Mef2+PCNA+cells as a percent of total Mef2+cells within each heart. (*=Student's ttest p-value <0.05; error bars=SEM; n=4 per group).

[5] = system: hepatoma cells; conditions: cited from earlier work
[6] = system: caudal fin of adult zebrafish; assay: Caudal fin regeneration after amputation in adult zebrafish; assay type: in vivo
Description: The purpose of this example was to evaluate the pharmacological effect of aminosterol MSI-1436 administration on the regeneration of the caudal or tail fins of zebrafish. Wildtype adult zebrafish were treated with MSI-1436 or squalamine or a control of phosphate buffered saline solution (PBS) over a four-day period via daily intraperitoneal microinjections. The adult zebrafish were bred and housed in the Yin laboratory at Mount Desert Island Biological Laboratory. The microinjections of PBS, squalamine and MSI-1436 were performed for the duration of the experiments at concentrations of 0.125 mg/kg which corresponds to 50 ng/300 mg body weight which translates to 5-200 mg per dose in humans. On average, a 5 ul volume of 10 ug/ml solution was delivered into each animal with a custom made 10 ul glass syringe (Hamilton part #80008).
The tail or caudal fins were amputated following the second day of intraperitoneal microinjections. These amputations were accomplished using a razor blade to remove approximately 50% of the caudal fins each in a manner perpendicular to the direction of bony ray growth. The zebrafish were maintained at standard conditions of 28° C. at all times during the experiments. At 4 days post-amputation (4 dpa) through 14 dpa, caudal fins were imaged with an Olympus MVX10 stereomicroscope and the length of regenerated tissue from the amputation plane was quantified using Adobe Photoshop.
(The dashed lines correspond to the amputation planes; the scale bar is 1 mm; * corresponds to the Student's ttest p-value <0.01; error bars correspond to SEM; n corresponds to 8-10 fish per group.) MSI-1436 stimulated appendage regeneration 2-fold four days after amputation (4 dpa), as shown in FIG. 2. […] In other words, the rate of regeneration was […] for those animals receiving MSI-1436 than for those receiving either phosphate buffered saline (PBS) or squalamine. Each of the experiments was conducted with at least 6 animals per group. […] FIG. 1 reflects the results of all four experiments.
Wildtype adult zebrafish were subjected to caudal fin amputation and treated daily with either control PBS or MSI-1436 as described above in the context of FIG. 1 for 14 consecutive days during regeneration. (Arrowhead=amputation plane; n=4-6 per group).

[7] = system: insulin receptor; conditions: mouse, with administration of insulin; cited from earlier work
[8] = system: zebrafish adult hearts; assay: Rescue of let-7 miRNA depletion defect in heart regeneration (cardiomyocyte proliferation index); assay type: in vivo; conditions: 3 dpa
Source text: To determine if MSI-1436 is capable of rescuing defects in heart regeneration, we microinjected antisense oligonucleotides to bind and remove activity of the let-7 family of small RNAs (miRNAs). Wildtype adult zebrafish were injured via the partial ventricular resection procedure described above and treated with either 1) control of PBS, 2) MSI-1436, 3) miRNA depletion, and 4) miRNA depletion and MSI-1436. At three days post-amputation (3 dpa), hearts were extracted and stained to detect Mef2+PCNA+cells. Cardiomyocyte proliferation indices were determined as a percent of Mef2+PCNA+cells within the total cardiomyocyte population in each heart. (*=Student's ttest p-value <0.05; error bars=SEM; n=8-12 hearts per group) The inclusion of MSI-1436 enhanced cardiomyocyte proliferation indices by 2-fold when compared to control hearts. Depletion of the let-7 family of miRNAs with antisense nucleotides inhibited cardiomyocyte proliferation index by approximately 45%.

[9] = system: Normal, green monkey kidney cells; assay: Cellular proliferation of normal green monkey kidney cells; assay type: cell-based; conditions: 0.1 μg/ml or 1.0 μg/ml, two weeks
Description: This study was conducted to determine the effects of MSI-1436 on the cellular proliferation of normal, uninjured mammalian cells.
Normal, green monkey kidney cells were cultured with either control media of PBS or supplemented with 0.1 μg/ml or 1.0 μg/ml of MSI-1436. Growth media with and without MSI-1436 were replaced daily and total cell numbers were determined for each group over a period of 2-weeks.

SMILES: CC(C)[C@@H](CC[C@@H](C)[C@H]1CC[C@H]2[C@@H]3[C@H](O)C[C@H]4C[C@@H](NCCCNCCCCNCCCN)CC[C@]4(C)[C@H]3CC[C@]12C)OS(=O)(=O)O [MSI-1436]
- increase in cellular proliferation of blastema cells (H3P positive) [1]: 2 fold
- antiviral activity against HIV [2]: exhibits antiviral activity against HIV
- PTP1B activity [3]: inhibit the activity of PTP1B
- greater rate of heart regeneration, as quantified by cardiomyocyte proliferation indices, vs PBS or squalamine [4]: 2-3 fold
- phosphorylation of the insulin receptor [5]: increase the level of phosphorylation of the insulin receptor
- anatomy of restored tail ([6]; 0.125 mg/kg daily ip): anatomically normal
- rate of regeneration greater than PBS or squalamine ([6]; 0.125 mg/kg daily ip): 200%
- overgrowth of regenerated tissue ([6]; 14 consecutive days of daily microinjections): did not display any overgrowth
- amount of regenerated tissue vs control ([6]; 14 days post-amputation (14 dpa)): same amount of regenerated tissue
- stimulation of appendage regeneration ([6]; four days after amputation (4 dpa), 0.125 mg/kg daily ip): 2 fold
- recovery of phosphorylated insulin receptor from the hypothalamus [7]: increase in the recovery of phosphorylated insulin receptor from the hypothalamus
- enhancement of cardiomyocyte proliferation indices vs control hearts [8]: 2 fold
- cardiomyocyte proliferation index in animals with miRNA depletion ([8]; miRNA depletion and MSI-1436): restored to wildtype control levels
- cellular proliferation plots ([9]; media replaced daily): normal growth curves
- overgrowth or hyperproliferation [9]: did not promote overgrowth or hyperproliferation
